In patent publication US20240124442A1, “TRICYCLIC-AMIDO-BICYCLIC PRMT5 INHIBITORS” (AMGEN INC., priority 2021, published 2024):
pIC50: −log10 of the molar value.

Experiments:
HCT116 WT cells = test: HCT116 WT (parent) cell line proliferation / cell viability (CellTiter-Glo, 6 days); assay type: cell-based; conditions: Homo sapiens, HCT-116, 144 h, 6 days treatment
How it was run: (§1)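 Isogenic HCT116 parent and MTAP-knockout cells in RPMI 1640 + 10% FBS, plated overnight, then exposed to compound for 6 days (37 °C, 5% CO2). Viability by CellTiter-Glo luminescence. Dilutions: 8–9 points from 1 or 10 μM (1:3), or 22 points from 10 or 50 μM (1:2); IC50 by 4-parameter or Hill −1 fit.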

HCT116 MTAP null cells = test: HCT116 MTAP null cell line proliferation / cell viability (CellTiter-Glo, 6 days); assay type: cell-based; conditions: 144 h; HCT116 MTAP null cells, 6 days treatment, CellTiter-Glo cell viability; read-out: HCT-116 MTAP null IC50
How it was run: as §1

| Structure (SMILES) | pIC50 (HCT116 WT cells) | pIC50 (HCT116 MTAP null cells) |
| --- | --- | --- |
| CCN(C(=O)c1ccc2nc(N)c3cnn(C)c3c2c1)[C@H]1COc2cc(C(F)(F)F)ccc21 [Example 229, 4-amino-N-ethyl-1-methyl-N-((3R)-6-(trifluoromethyl)-2,3-dihydro-1-benzofuran-3-yl)-1H-pyrazolo[4,3-c]quinoline-8-carboxamide] | 5.11 | 6.58 |
| CN(C(=O)c1cc2c(cc1F)nc(N)c1c2cnn1C)[C@@H]1COCc2c1ccc(C(F)(F)F)c2F (single isomer, unassigned) [Example 440] | 5.52 | 7.32 |
| CCN(C(=O)c1cc2c3c(c(N)nc2cn1)COC3)[C@@H]1COc2cc(C(F)(F)F)ccc21 (single isomer, unassigned) [Example 543] | 5.84 | 7.31 |
| CN(C(=O)c1cc2c3c(c(N)nc2cn1)COC3)[C@H]1COCc2ccc(C(F)(F)F)cc21 (single isomer, unassigned) [Example 584] | 4.30 | 5.16 |
| Cc1nn(C)c2c1c(N)nc1cc(F)c(C(=O)N(C)[C@@H]3COc4cc(C(F)(F)F)ccc43)cc12 [Example 267, 4-amino-7-fluoro-N,1,3-trimethyl-N-((3S)-6-(trifluoro-methyl)-2,3-dihydro-1-benzo-furan-3-yl)-1H-pyrazolo[4,3-c]quinoline-8-carboxamide] | 5.70 | 7.44 |
| CN(C(=O)c1cc2c3c(c(N)nc2cc1F)COC3)[C@@H]1COc2cc(C#N)ccc21 (single isomer, unassigned) [Example 551] | 5.87 | 7.77 |
| CN(C(=O)c1ccc2nc(N)c3cnn(C)c3c2c1)[C@H]1COCc2cc(Br)ccc21 (single isomer, unassigned) [Example 413] | 5.10 | 6.44 |
| COc1ccc2c(c1)COC[C@@H]2N(C)C(=O)c1cc2c(cc1F)nc(N)c1cnn(C)c12 (single isomer, unassigned) [Example 428] | 5.08 | 6.56 |
| Cc1nc2nc(N)c3cnn(C)c3c2cc1C(=O)N(C)[C@@H]1COCc2cc(C#N)ccc21 [Example 299, 4-amino-N-((4S)-7-cyano-3,4-dihydro-1H-2-benzopyran-4-yl)-N,1,7-trimethyl-1H-pyr-azolo[4,3-c][1,8]naphthyridine-8-carboxamide] | 5.82 | 7.43 |
| CN(C(=O)c1ccc2nc(N)c3c(c2c1)COC3)[C@H]1COc2cc(Br)ccc21 (single isomer, unassigned) [Example 330] | 4.64 | 5.79 |
| CN(C(=O)c1cc2c3c(c(N)nc2cc1Cl)COC3)[C@H]1COc2cc(S(C)(=O)=O)ccc21 (single isomer, unassigned) [Example 565] | 4.82 | 6.07 |
| Cc1ccc2c(n1)CCC2N(C)C(=O)c1ccc2nc(N)c3cnn(C)c3c2c1 (racemic) [Example 682, 4-amino-N,1-dimethyl-N-((5R)-2-methyl-6,7-dihydro-5H-cyclopenta[b]pyridin-5-yl)-1H-pyrazolo[4,3-c]quinoline-8-carboxamide and 4-amino-N,1-dimethyl-N-((5S)-2-methyl-6,7-dihydro-5H-cyclopenta[b]pyridin-5-yl)-1H-pyrazolo[4,3-c]quinoline-8-carboxamide] | 4.68 | 6.53 |
| Cc1cc(-c2ccc3c(c2)OC[C@H]3N(C)C(=O)c2ccc3nc(N)c4cnn(C)c4c3c2)on1 [Example 633, 4-amino-N,1-dimethyl-N-((3S)-6-(3-methyl-1,2-oxazol-5-yl)-2,3-dihydro-1-benzofuran-3-yl)-1H-pyrazolo[4,3-c]quinoline-8-carboxamide] | 6.17 | 8.10 |
| Cc1nn(C)c2c1c(N)nc1cnc(C(=O)N(C)[C@@H]3COCc4nc(C(F)(F)F)ccc43)cc12 [Example 312, 4-amino-N,1,3-trimethyl-N-((5S)-2-(trifluoromethyl)-5,8-dihydro-6H-pyrano[3,4-b]-pyridin-5-yl)-1H-pyrazolo-[4,3-c][1,7]naphthyridine-8-carboxamide] | 5.02 | 6.99 |
| CN(C(=O)c1ccc2nc(N)c3cnn(C)c3c2c1)[C@@H]1COc2cc(-c3cnc(C(F)(F)F)s3)ccc21 [Example 656, 4-amino-N,1-dimethyl-N-((3S)-6-(2-(trifluoromethyl)-1,3-thiazol-5-yl)-2,3-dihydro-1-benzofuran-3-yl)-1H-pyrazolo[4,3-c]quinoline-8-carboxamide] | 6.29 | 8.22 |
| CN(C(=O)c1ccc2nc(N)c3cnn(C)c3c2c1)C1c2ccc(C(F)(F)F)nc2CC1(F)F (racemic) [Example 233, 4-amino-N-((5R)-6,6-difluoro-2-(trifluoromethyl)-6,7-dihydro-5H-cyclopenta[b]pyridin-5-yl)-N,1-dimethyl-1H-pyrazolo[4,3-c]quinoline-8-carboxamide and 4-amino-N-((5S)-6,6-difluoro-2-(trifluoromethyl)-6,7-dihydro-5H-cyclopenta[b]pyridin-5-yl)-N,1-dimethyl-1H-pyrazolo[4,3-c]quinoline-8-carboxamide] | 4.72 | 6.14 |
| Cc1ccc2c(c1)CC[C@H]2N(C)C(=O)c1ccc2nc(N)c3cnn(C)c3c2c1 (single isomer, unassigned) [Example 680] | 5.10 | 6.77 |
| Cn1ncc2c3cc(C(=O)N(C4CC4)[C@@H]4COCc5nc(C(F)(F)F)ccc54)c(F)cc3nc(N)c21 [Example 516, 4-amino-N-cyclopropyl-7-fluoro-3-methyl-N-((5S)-2-(trifluoromethyl)-5,8-dihydro-6H-pyrano[3,4-b]pyridin-5-yl)-3H-pyrazolo[3,4-c]quinoline-8-carboxamide] | 5.19 | 6.98 |
| CN(C(=O)c1cc2c3c(c(N)nc2cc1F)COC3)[C@H]1COc2cc(S(F)(F)(F)(F)F)ccc21 (single isomer, unassigned) [Example 358] | 5.05 | 5.92 |
| CN(C(=O)c1cc2c3c(c(N)nc2cn1)COC3)[C@H]1CCOc2cc(C(F)(F)F)ccc21 (single isomer, unassigned) [Example 586] | 5.00 | 5.52 |
| CN(C(=O)c1ccc2nc(N)c3cnn(C)c3c2c1)[C@@H]1COc2cc(-c3cccnc3)ccc21 [Example 628, 4-amino-N,1-dimethyl-N-((3S)-6-(3-pyridinyl)-2,3-dihydro-1-benzofuran-3-yl)-1H-pyrazolo[4,3-c]quinoline-8-carboxamide] | 6.29 | 8.30 |
| C[C@H]1OC[C@@H](N(C)C(=O)c2cc3c4c(c(N)nc3nc2Cl)COC4)c2ccc(C(F)(F)F)cc21 (single isomer, unassigned) [Example 406] | 6.49 | 7.96 |
| Cc1nn(C)c2c1c(N)nc1cnc(C(=O)N(C)[C@@H]3COc4cc(C(F)(F)F)ccc43)cc12 [Example 265, 4-amino-N,1,3-trimethyl-N-((3S)-6-(trifluoromethyl)-2,3-dihydro-1-benzofuran-3-yl)-1H-pyrazolo[4,3-c][1,7]-naphthyridine-8-carboxamide] | 5.41 | 6.82 |
| CN(C(=O)c1cc2c3c(c(N)nc2cc1F)COC3)[C@H]1COc2cc(Cl)ccc21 (single isomer, unassigned) [Example 348] | 4.63 | 5.72 |
| CN(C(=O)c1cc2c3c(c(N)nc2cc1F)COC3)[C@@H]1COc2cc(S(F)(F)(F)(F)F)ccc21 (single isomer, unassigned) [Example 357] | 6.68 | 7.92 |
